“Also recorded” adds a separate entry of the source.
What was measured:
[1] = biological target: T1, DsKabA (Digenea simplex, UniProt A0A4D6IA24); assay: DsKabA activity and substrate specificity assay (LCMS); type: biochemical; settings: 23° C., 5 h, LCMS (FIG. 8); for turnover to N-prenylated product when L-glutamate is exchanged for another amino acid: 5 mM amino acid, 1 mM DMAPP, 5 mM MgCl2, 20 μM DsKabA
T1 construct: DsKabA p28 For; His6 (N); made in house; host or cells: E. coli BL-21
T1 sequence (A0A4D6IA24 1-439): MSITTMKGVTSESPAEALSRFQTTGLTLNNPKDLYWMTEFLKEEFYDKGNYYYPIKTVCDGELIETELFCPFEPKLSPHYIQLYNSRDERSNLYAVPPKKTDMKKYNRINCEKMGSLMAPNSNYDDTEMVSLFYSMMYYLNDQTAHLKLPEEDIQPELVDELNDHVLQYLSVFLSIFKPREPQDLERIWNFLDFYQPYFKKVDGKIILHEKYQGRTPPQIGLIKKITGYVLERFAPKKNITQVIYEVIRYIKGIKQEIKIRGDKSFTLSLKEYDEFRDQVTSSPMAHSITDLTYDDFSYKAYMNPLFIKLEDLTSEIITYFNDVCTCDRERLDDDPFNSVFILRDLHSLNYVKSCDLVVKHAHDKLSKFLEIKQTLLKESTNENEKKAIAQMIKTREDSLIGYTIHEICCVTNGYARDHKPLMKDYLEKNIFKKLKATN
Method: To test DsKabA activity and substrate specificity, a 50 μL reaction containing 5 mM MgCl2, 5 mM amino acid (L-Glu, D-Glu, L-Gln, L-Asp, L-Asn, or Gly), 1 mM prenyl donor (DMAPP or GPP), and 20 μM DsKabA in a buffer of 300 mM KCl and 50 mM HEPES pH 8.0 was incubated at 23° C. for 5 h. One equivalent of 0.1% formic acid in H2O was added and filtered with a VWR PES 3 k 500 μL spin column. The flow through was analyzed by an Agilent Technologies 1200 Series system with a diode-array detector coupled to an Agilent Technologies 6530 accurate-mass Q-TOF LCMS using the following method on a Synergi Polar-RP 4μ 250×4.6 mm column at 0.75 mL/min: 0% B (4.5 min), 0 to 5% B (0.5 min), 5 to 26% B (9 min), 26 to 80% B (9 min), 80 to 100% B (1 min), 100% B (1.5 min), 100 to 0% B (2.5 min), 0% B (2 min), wherein A=0.1% aqueous formic acid, and B=0.1% formic acid in acetonitrile.

[2] = tested on: ionotropic glutamate receptor (iGluR); settings: literature statement; cited from earlier work
[3] = humans in vivo; literature statement; cited from earlier work

Row | Compound | turnover to N-prenylated product when L-glutamate is exchanged for another amino acid [1] | iGluR bioactivity [2] | further results
1 | N[C@H](CCC(=O)O)C(=O)O [D-glutamate] | diminished turnover | – | –
2 | CC(C)=CCC/C(C)=C/COP(=O)(O)OP(=O)(O)O [GPP] | – | – | product formed when DMAPP is replaced by another prenyl donor ([1]; 1 mM prenyl donor with 5 mM L-glutamate, 20 μM DsKabA): formation of N-geranyl-L-glutamic acid (L-NGG)
3 | NC(=O)C[C@H](N)C(=O)O [L-asparagine] | did not produce appreciable amounts of N-prenylated product | – | –
4 | N[C@@H](CC(=O)O)C(=O)O [L-aspartate] | did not produce appreciable amounts of N-prenylated product | – | –
5 | NC(=O)CC[C@H](N)C(=O)O [L-glutamine] | did not produce appreciable amounts of N-prenylated product | – | –
6 | O=C(O)C[C@@H]1[C@@H](C(=O)O)NC[C@@H]1c1ccc(C(=O)O)[nH]c1=O [acromelic acid] | – | iGluR agonistic bioactivity | –
7 | C/C(=C/C=C/[C@@H](C)C(=O)O)[C@H]1CN[C@H](C(=O)O)[C@H]1CC(=O)O [domoic acid] | – | – | excitotoxic / neurological effects [3]: causes severe neurological problems
8 | NCC(=O)O [glycine] | did not produce appreciable amounts of N-prenylated product | – | –
9 | C=C(C)[C@H]1CN[C@H](C(=O)O)[C@H]1CC(=O)O [kainic acid] | – | ionotropic glutamate receptor (iGluR) agonist; also recorded: agonistic activity | excitotoxic / neurological effects [3]: does not appear to produce excitotoxic effects
10 | kainic acid lactone | – | iGluR antagonist | –

— US12365928B2, “Scalable biosynthesis of the seaweed neurochemical kainic acid” (The Regents of the University of California, priority 2018, dated 2025)
